The values below come from patent US20230167118A1, “DEGRADATION OF BRUTON'S TYROSINE KINASE (BTK) BY CONJUGATION OF BTK INIDBITORS WITH E3 LIGASE LIGAND AND METHODS OF USE” (BEIGENE, LTD., priority 2020, published 2023).

The subject of assay [1] is HEK-293 cells. The assay is described as follows: HEK-293 Cytotoxicity Assay (CellTiter-Glo). The assay is classed as cell-based. As to conditions: Homo sapiens, HEK293, 72 h incubation, CellTiter-Glo luminescence. Here is the method:
HEK-293 Cytotoxicity Assay
HEK-293 cells are treated with compounds diluted in 0.2% DMSO, dilution is done according to the following protocol: (1) make 500× stock solution in DMSO from 5 mM by 4-fold dilution, total 8 doses were included; (2) make 2× solution in cell culture medium by transferring 0.5 ul 500× stock solution into 125 ul medium; (3) 50 ul of 2× solution is added to cells and incubate for 72 h.
Add 25 μl of the CellTiter-Glo®Reagent [I (Promega)—Cat No. G7572] to each well in the 96-well plate. Mix contents for 2 minutes on an orbital shaker to induce cell lysis. Allow the plate to incubate at room temperature for 10 minutes to stabilize luminescent signal. Record luminescence on BMG PheraStar with luminescence protocol.
(§1) The IC50 value of a compound can be obtained by fitting the following equation. Y=Bottom+(TOP−Bottom)/(1+((IC50/X)^hillslope)) Wherein, X and Y are known values, and IC50, Hillslope, Top and Bottom are the parameters obtained by fitting with software. Y is the inhibition percentage (calculated from the equation), X is the concentration of the compound; IC50 is the concentration of the compound when the 50% inhibition is reached. The smaller the IC50 value is, the stronger the inhibitory ability of the compound is. Vice versa, the higher the IC50 value is, the weaker the ability the inhibitory ability of the compound is; Hillslope represents the slope of the fitted curve, generally around 1*; Bottom represents the minimum value of the curve obtained by data fitting, which is generally 0%±20%; Top represents the maximum value of the curve obtained by data fitting, which is generally 100%±20%. The experimental data were fitted by calculating and analyzing with Dotmatics data analysis software.
A general note: Cellular ATP, detected with luciferase, serves as a proxy for viable cell number.

Assay [2] has as its target T1, BTK (Homo sapiens, UniProt Q06187).
T1 construct: High control=Cell group with added DMSO and without compound, indicating microplate readings without BTK degradation; endogenous in cells; host or cells: TMD-8 cells
In words: Cell Degradation: BTK degradation in TMD-8 cells, HTRF assay. The assay is classed as cell-based. As to conditions: 6 h treatment, IC50 (DC50) of BTK degradation. On the procedure: TMD-8 cells are treated with compounds in 0.2% DMSO, dilution is done according to the following protocol: (1) make 500× stock solution in DMSO from 1 mM by 6-fold dilution, total 8 doses were included; (2) make 2× solution in cell culture medium by transferring 0.5 μl 500× stock solution into 125 μl medium; (3) 15 μl of 2× solution is added to cells and incubate for 6 h.
After 6 h treatment, add […] 4×lysis buffer to each well; seal the plate and incubate 30 min at room temperature on a plate shaker; Once the cells are lysed, 16 μL of cell lysate are transferred to a PE 384-well HTRF detection plate; 4 μL of pre-mixed HTRF antibodies are added to each well; Cover the plate with a plate sealer, spin 1000 rpm for 1 min, Incubate overnight at room temperature; Read on BMG PheraStar with HTRF protocol (337 nm-665 nm-620 nm).
The inhibition (degradation) percentage of the compound was calculated by the following equation: Inhibition percentage of Compound=100-100× (Signal-low control)/(High control-low control), wherein signal=each test compound group
Dmax is the maximum percentage of inhibition (degradation).
The IC50 (DC50) value of a compound can be obtained by fitting the following equation
Y=Bottom+(TOP-Bottom)/(1+((IC50/X)^hillslope))
as §1, with “Wherein,” for “The IC50 value of a compound can be obtained by fitting the following equation. Y=Bottom+(TOP−Bottom)/(1+((IC50/X)^hillslope)) Wherein,”, “1 *;” for “1*;”
For orientation: Time-resolved FRET reads energy transfer from a long-lived donor to a nearby acceptor.

pIC50: −log10 of the molar value.

As a reminder, the pIC50 is the IC50 on a negative log10 scale, so that one unit is a factor of ten. Read a high pIC50 as a low IC50. In general, DC50 refers to the midpoint of the concentration-degradation curve. Read a high DC50 as a less potent degrader.

T1 sequence (Q06187 whole entry): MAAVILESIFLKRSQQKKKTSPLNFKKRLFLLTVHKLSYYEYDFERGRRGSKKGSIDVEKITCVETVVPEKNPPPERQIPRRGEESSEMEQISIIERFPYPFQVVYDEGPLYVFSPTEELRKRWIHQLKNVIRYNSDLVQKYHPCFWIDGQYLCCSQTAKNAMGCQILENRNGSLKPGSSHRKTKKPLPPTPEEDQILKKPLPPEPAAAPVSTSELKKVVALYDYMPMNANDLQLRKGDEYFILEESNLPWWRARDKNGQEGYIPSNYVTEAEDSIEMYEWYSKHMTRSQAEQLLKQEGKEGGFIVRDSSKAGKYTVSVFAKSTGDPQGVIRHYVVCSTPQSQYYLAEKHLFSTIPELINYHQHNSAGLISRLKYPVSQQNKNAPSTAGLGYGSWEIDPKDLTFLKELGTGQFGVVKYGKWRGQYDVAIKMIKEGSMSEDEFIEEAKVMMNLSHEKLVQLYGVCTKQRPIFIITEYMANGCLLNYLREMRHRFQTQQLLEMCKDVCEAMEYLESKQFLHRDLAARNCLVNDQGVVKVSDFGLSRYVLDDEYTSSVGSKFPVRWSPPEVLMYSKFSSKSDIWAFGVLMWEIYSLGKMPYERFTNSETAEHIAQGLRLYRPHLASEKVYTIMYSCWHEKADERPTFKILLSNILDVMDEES

Consider `Cc1cc(-c2ncnc3[nH]c(-c4ccc(N5CCN(CC6CCN(c7ccc(N8CCC(=O)NC8=O)c(C)c7)CC6)CC5)cn4)cc23)ccc1[C@@H](C)NC(=O)c1noc(C2(CO)CC2)n1` [Example 123, (R)-N-(1-(4-(6-(5-(4-((1-(4-(2,4-dioxotetrahydropyrimidin-1(2H)-yl)-3-methylphenyl)piperidin-4-yl)methyl)piperazin-1-yl)pyridin-2-yl)-7H-pyrrolo[2,3-d]pyrimidin-4-yl)-2-methylphenyl)ethyl)-5-(1-(hydroxymethyl)cyclopropyl)-1,2,4-oxadiazole-3-carboxamide], for which, in assay [1], the pIC50 is less than 5.00. For the same molecule, half-maximal degradation in assay [2] (DC50) was put at 0.16 nM.
On the same counts, the results for `Cc1cc(-c2ncnc3[nH]c(-c4c(C)nn(C5CCN(CC6CCN(c7ccc(N8CCC(=O)NC8=O)cc7)CC6)CC5)c4C)cc23)ccc1[C@@H](C)NC(=O)c1nc(C(C)(C)C)no1` [Example 60, (R)-3-(tert-butyl)-N-(1-(4-(6-(1-(1-((1-(4-(2,4-dioxotetrahydropyrimidin-1(2H)-yl)phenyl)piperidin-4-yl)methyl)piperidin-4-yl)-3,5-dimethyl-1H-pyrazol-4-yl)-7H-pyrrolo[2,3-d]pyrimidin-4-yl)-2-methylphenyl)ethyl)-1,2,4-oxadiazole-5-carboxamide] are less than 5.00 and 0.48 nM.
On the same counts, the results for `Cc1cc(-c2ncnc3[nH]c(-c4ccc(N5CCN(CC6CCN(c7ccc(N8CCC(=O)NC8=O)cc7)CC6)CC5)cc4)cc23)ccc1[C@@H](C)NC(=O)c1noc(C2(C)CC2)n1` [Example 90, (R)-N-(1-(4-(6-(4-(4-((1-(4-(2,4-dioxotetrahydropyrimidin-1(2H)-yl)phenyl)piperidin-4-yl)methyl)piperazin-1-yl)phenyl)-7H-pyrrolo[2,3-d]pyrimidin-4-yl)-2-methylphenyl)ethyl)-5-(1-methylcyclopropyl)-1,2,4-oxadiazole-3-carboxamide] are less than 5.00 and 1.5 nM.
On the same counts, the results for `C[C@@H](NC(=O)c1nc(C(C)(C)C)no1)c1cc(F)c(-c2ncnc3[nH]c(-c4ccc(N5CCN(CC6CCN(c7ccc(N8CCC(=O)NC8=O)cc7)CC6)CC5)cn4)cc23)cc1CO` [Example 178, (R)-3-(tert-butyl)-N-(1-(4-(6-(5-(4-((1-(4-(2,4-dioxotetrahydropyrimidin-1(2H)-yl)phenyl)piperidin-4-yl)methyl)piperazin-1-yl)pyridin-2-yl)-7H-pyrrolo[2,3-d]pyrimidin-4-yl)-5-fluoro-2-(hydroxymethyl)phenyl)ethyl)-1,2,4-oxadiazole-5-carboxamide] are less than 5.00 and 0.44 nM.
In assay [1], `Cc1cc(-c2ncnc3[nH]c(-c4ccc(C5CCN(CC6CCN(c7ccc(N8CCC(=O)NC8=O)cc7)CC6)CC5)cc4)cc23)ccc1CNC(=O)c1cn(C(C)(C)C)nn1` [Example 40, 1-(tert-butyl)-N-(4-(6-(4-(1-((1-(4-(2,4-dioxotetrahydropyrimidin-1(2H)-yl)phenyl)piperidin-4-yl)methyl)piperidin-4-yl)phenyl)-7H-pyrrolo[2,3-d]pyrimidin-4-yl)-2-methylbenzyl)-1H-1,2,3-triazole-4-carboxamide] had a pIC50 of less than 5.00. In assay [2], this molecule returned a DC50 of 0.63 nM.
On the same counts, the results for `Cc1cc(-c2ncnc3[nH]c(-c4ccc(C5CCN(CCC6CCN(c7ccc(C8CCC(=O)NC8=O)cc7)CC6)CC5)cc4)cc23)ccc1CNC(=O)c1nc(C(C)(C)C)no1` (stereo not drawn) [Example 4, 3-(tert-butyl)-N-(4-(6-(4-(1-(2-(1-(4-(2,6-dioxopiperidin-3-yl)phenyl)piperidin-4-yl)ethyl)piperidin-4-yl)phenyl)-7H-pyrrolo[2,3-d]pyrimidin-4-yl)-2-methylbenzyl)-1,2,4-oxadiazole-5-carboxamide] are 5.43 and 2.3 nM.
